The record followed here is US4180559A, “Coated 1-(2-chlorodibenzo[b,f]oxepin-10-yl)-4-methylpiperazine compositions” (Richardson-Merrell Inc., priority 1978, dated 1979).

Each structure is given as a SMILES string. Values after ≈ are worked out from the molar mass of the structure shown. “Also recorded” adds a separate entry of the source. Read-outs that look alike come from different tables or passages of the source.

As a reminder, the solubility is the dissolved amount per volume that the medium holds. By half-life is commonly meant how long it takes for the measured level to halve.

Data set [1] in a line: Solubility of the compound in aqueous solutions and in 50% methanol-water at various pH. The class given is physicochemical. The text has this:
On the other hand, if the drug is exposed to the relatively alkaline portions of the intestinal tract, i.e., a pH greater than 7.5, the drug remains undissolved and is unavailable for absorption in humans.

The nature of data set [2]: Acid hydrolysis / half-life of the compound at various pH and temperature. Format: physicochemical. As to conditions: for half-life: 50% methanol-water. The text has this: However, paradoxically, under the acidic conditions of maximum dissolution and absorption, the drug substance is itself the most labile from a chemical point of view. As previously indicated, the compound belongs to a class of enamines that are readily hydrolyzed under acidic aqueous conditions.

Data set [3] is described as follows: Anti-psychotic properties and liabilities (general statement).
Data set [4] in a line: Absorption into the bloodstream (general statement). As to conditions: uncoated drug; degradation at low pH in the stomach.

For the compound `CN1CCN(C2=Cc3cc(Cl)ccc3Oc3ccccc32)CC1` [1-(2-Chlorodibenzo[b,f]oxepin-10-yl)-4-methylpiperazine], the “solubility” value is “totally insoluble” in data set [1] (50% methanol-water system, pH 8.0); 20000 µg/mL (≈ 61.2 mM) in data set [1] (aqueous solution, pH 1.0, read-out: solubility); 15000 µg/mL (≈ 45.9 mM) in data set [1] (aqueous solution, pH 3.0, read-out: solubility); 4000 µg/mL (≈ 12.2 mM) in data set [1] (aqueous solution, pH 4.3, read-out: solubility); “insoluble” in data set [1] (aqueous solutions, pH greater than 7.5); 2000 µg/mL (≈ 6.12 mM) in data set [1] (organic solvent or mixture, 50% methanol-water system, pH 7.0, read-out: solubility). In addition, the half-life was 0.12 h in data set [2] (pH 1.5, 25° C., pH 1.5, 50% (v/v) methanol-water); 0.12 h in data set [2] (pH 1.5, 37° C., pH 1.5); 269 h in data set [2] (pH 6, 25° C., pH 6.0, 50% (v/v) methanol-water); 159 h in data set [2] (pH 6, 37° C., pH 6.0). In data set [2] (aqueous conditions), the acid lability entry was “high degree of acid lability”. Moreover, the anti-psychotic properties result in data set [3] is “potent anti-psychotic properties; also recorded: particularly useful antipsychotic properties”. The cardiovascular liabilities entry in data set [3] is recorded as “minimal”. In addition, in data set [3], the extrapyramidal liabilities result is recorded as “minimal”. Besides, in data set [4], the “absorption into the bloodstream” value is “poor and erratic absorption”.
